Assays:
[1] = cited from earlier work
[2] = molecular target: T1, eIF4E wild-type (Mus musculus, UniProt P63073); assay: tryptophan fluorescence quenching titration of nucleoside/nucleotide binding; settings: fluorescence spectroscopy, wild-type eIF4E; read-out: apparent dissociation constant (Kd) for eIF4E
T1 construct: made in house
Method: For fluorescence titrations, mouse eIF4E, which differs from human eIF4E by four nonconserved amino acids, was produced as described. For NMR spectroscopy, mouse eIF4E was expressed as a fusion with the B1 domain of protein G (G4E, kind gift of Gerhard Wagner, Harvard University, Cambridge, Mass.), in BL21 (DE-3) cells by induction with 0.8 mM isopropyl-β-D-thiogalactopyranoside at 18° C. for 20 h in M9 minimal media containing 1 g/l ^15NH4Cl as the sole nitrogen source (Cambridge Isotopes). Cells were lysed at 4° C. by sonication in 0.1 M NaCl/50 mM Tris.HCl (pH 7.5/0.5 mM EDTA/0.5% (vol/vol) Nonidet P-40/10 mM 2-mercaptoethanol/1 mM PMSF. Lysates were cleared by centrifugation at 30,000×g, adsorbed onto m^7G diphosphate-conjugated agarose (Amersham Pharmacia), and extensively washed with 0.1 M NaCl/20 mM Tris.HCl (pH 7.5)/0.5 mM EDTA (Buffer A) at 4° C. Subsequently, beads were washed with 0.1 mM GTP in Buffer A, and G4E was eluted with 5 mM m^7G in Buffer A. Eluate was diluted with 20 mM Na2PO4 (pH 7.5) to reduce NaCl concentration to 50 mM, applied to Sepharose Q anion exchange column (Amersham Pharmacia), and eluted with a linear gradient of NaCl in 20 mM Na2PO4 (pH 7.5) at 4° C. Eluate was dialyzed extensively against 0.1 M NaCl/50 mM Na2PO4 (pH 6.5)/5 mM DTT at 4° C. to produce apo-G4E, as verified by using NMR spectroscopy and fluorescence titrations. Purity and identity of G4E were verified by using SDS/PAGE and electrospray ionization MS. Proteins were concentrated by using Amicon concentrators (Millipore).
(§1) Fluorescence measurements were performed by using a home-built fluorimeter, as described. All titrations were performed in 0.3 M NaCl/10 mM Na2PO4 (pH 7.5)/1 μM zinc in 0.3×0.3 cm^2 fluorescence cuvette (Hellma), by using eIF4E concentration of 2 μM. […] Corrected relative fluorescence intensities were normalized, and fluorescence quenching curves were fit to a heuristic single-site-binding expression: I/I0=Kd^n/(x^n+Kd^n) where x is ligand concentration, Kd is the apparent dissociation constant, and n is the Hill coefficient.

[3] = molecular target: T2, eIF4E (G4E) (UniProt P06654+P63073); assay: electrospray mass spectrometry of purified G4E with Ribavirin and GTP; assay type: binding, mouse; settings: mixture of Ribavirin and GTP, fourfold excess
T2 construct: made in house; host or cells: E. coli BL21 (DE-3); construct a gift of Gerhard Wagner
Method: FIG. 10. […] Mass spectra were recorded using the Agilent Technologies 1100 LC/MSD integrated liquid chromatograph single quadrupole electrospray mass spectrometer (ES-MS) operating in positive ion mode. […]; The solution was electrosprayed directly at […] using nebulizer pressure of 20 psi, drying nitrogen gas at 200° C. and 10 L/min, and capillary voltage of 4.5 kV. (a) ES-MS spectrum plotting ion abundance in 20 uL of the above mixture as a function of the mass/charge ratio is shown. […]. Thus, obtaining affinities from mass spectrometry data is confounded by these differences in ionization.

[4] = molecular target: T3, eIF4E W56A (Mus musculus, UniProt P63073, W56A); assay: tryptophan fluorescence quenching titration, cap-binding site mutant; settings: relative to wild-type eIF4E
T3 construct: made in house
Method: For fluorescence titrations, mouse eIF4E, which differs from human eIF4E by four nonconserved amino acids, was produced as described. For NMR spectroscopy, mouse eIF4E was expressed as a fusion with the B1 domain of protein G (G4E, kind gift of Gerhard Wagner, Harvard University, Cambridge, Mass.), in BL21 (DE-3) cells by induction with 0.8 mM isopropyl-β-D-thiogalactopyranoside at 18° C. for 20 h in M9 minimal media containing 1 g/l ^15NH4Cl as the sole nitrogen source (Cambridge Isotopes). […] Eluate was dialyzed extensively against 0.1 M NaCl/50 mM Na2PO4 (pH 6.5)/5 mM DTT at 4° C. to produce apo-G4E, as verified by using NMR spectroscopy and fluorescence titrations. […]
as §1

T1 sequence (P63073 whole entry): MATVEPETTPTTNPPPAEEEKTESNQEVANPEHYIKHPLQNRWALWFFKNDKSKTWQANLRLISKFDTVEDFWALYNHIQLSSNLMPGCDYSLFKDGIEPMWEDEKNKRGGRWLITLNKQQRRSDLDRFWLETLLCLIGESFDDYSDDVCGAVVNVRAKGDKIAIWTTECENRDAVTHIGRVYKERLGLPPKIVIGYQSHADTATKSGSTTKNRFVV
T2 sequence (P06654+P63073 fused): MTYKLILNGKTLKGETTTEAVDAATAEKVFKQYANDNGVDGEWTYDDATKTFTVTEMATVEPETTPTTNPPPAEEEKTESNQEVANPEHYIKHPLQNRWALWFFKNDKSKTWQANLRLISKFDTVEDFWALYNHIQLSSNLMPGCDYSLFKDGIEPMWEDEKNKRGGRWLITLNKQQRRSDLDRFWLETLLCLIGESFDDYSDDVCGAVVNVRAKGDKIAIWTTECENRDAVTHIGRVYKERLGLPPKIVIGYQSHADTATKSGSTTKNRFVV
T3 sequence (P63073 whole entry W56A): as the sequence (P63073 whole entry) above, with W56A counted along it

NC(=O)c1ncn([C@@H]2O[C@H](CO)[C@@H](O)[C@H]2O)n1 [Ribavirin, 1-β-D-ribofuranosyl-1,2,4-triazole-3-carboxamide]
solubility in anhydrous ethanol ([1]; anhydrous ethanol): sparingly soluble
solubility in water ([1]; water): freely soluble
Kd [2]: 8.4 µM
binding to eIF4E observed by mass shift [3]: specific binding
reduction of Ribavirin affinity by W56A mutation [4]: 14 fold
